# According to PubChem BioAssay AID2060892 (Molecular Pharmacology Branch, DTP, NCI, 2025):
# Test system: HOP-62 complex spheroids with HUVEC/MSC, viability
# Experiment: Anticancer human tumor HOP-62 cell line growth inhibition [RAS];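 also: spheroids exposed to agents for seven days before readout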;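 as to viability, T/C: 100% = DMSO vehicle control viability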
# Details: for IC50: curve of first compound; for viability, T/C: stronger effect = lower value
# In short: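 Multi-cell-type spheroids: tumor cells plus HUVEC endothelial cells and mesenchymal stem cells. RAS-pathway inhibitors were combined with targeted agents, each dosed in half-log steps down from clinical Cmax, or from 10 microM when Cmax was unknown.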
# [1] = second compound 0.000949 µM, first compound 0.0316 µM
# [2] = second compound 0.000949 µM, first compound 0.1 µM
# [3] = second compound 0.003 µM, first compound 0.0316 µM
# [4] = second compound 0.003 µM, first compound 0.1 µM
# [5] = second compound 0.00949 µM, first compound 0.0316 µM
# [6] = second compound 0.00949 µM, first compound 0.1 µM
# [7] = second compound 0.03 µM, first compound 0.0316 µM
# [8] = second compound 0.03 µM, first compound 0.1 µM
# [9] = second compound 0.0949 µM, first compound 0.0316 µM
# [10] = second compound 0.0949 µM, first compound 0.1 µM
# [11] = second compound 0.3 µM, first compound 0.0316 µM
# [12] = second compound 0.3 µM, first compound 0.1 µM
smiles,measurement,setting,value
CC(C)NCC(C(=O)N1CCN(c2ncnc3c2C(C)CC3O)CC1)c1ccc(Cl)cc1 (centres undefined) + CCn1c(-c2cccnc2C(C)OC)c2c3cc(ccc31)N1CCOC(CC(NC(=O)C(C(C)C)N(C)C(=O)C3(F)CCN(C(=O)C#CC(C)(C)N(C)C)CC3)C(=O)N3CCCC(N3)C(=O)OCC(C)(C)C2)C1,IC50,second compound 0.000949 µM,3.57 µM
same,IC50,second compound 0.003 µM,2.21 µM
same,IC50,second compound 0.00949 µM,1.65 µM
same,IC50,second compound 0.03 µM,1.12 µM
same,IC50,second compound 0.0949 µM,1.17 µM
same,IC50,second compound 0.3 µM,0.742 µM
same,"viability, T/C",[1],98.8%
same,"viability, T/C",[2],119%
same,"viability, T/C","second compound 0.000949 µM, first compound 0.316 µM",65.4%
same,"viability, T/C","second compound 0.000949 µM, first compound 1 µM",76.4%
same,"viability, T/C","second compound 0.000949 µM, first compound 3.16 µM",61.6%
same,"viability, T/C","second compound 0.000949 µM, first compound 10 µM",20.3%
same,"viability, T/C",[3],101%
same,"viability, T/C",[4],105%
same,"viability, T/C","second compound 0.003 µM, first compound 0.316 µM",65.3%
same,"viability, T/C","second compound 0.003 µM, first compound 1 µM",67.7%
same,"viability, T/C","second compound 0.003 µM, first compound 3.16 µM",47.1%
same,"viability, T/C","second compound 0.003 µM, first compound 10 µM",21.2%
same,"viability, T/C",[5],81.7%
same,"viability, T/C",[6],100%
same,"viability, T/C","second compound 0.00949 µM, first compound 0.316 µM",80.1%
same,"viability, T/C","second compound 0.00949 µM, first compound 1 µM",58.9%
same,"viability, T/C","second compound 0.00949 µM, first compound 3.16 µM",38.5%
same,"viability, T/C","second compound 0.00949 µM, first compound 10 µM",22%
same,"viability, T/C",[7],122%
same,"viability, T/C",[8],83.4%
same,"viability, T/C","second compound 0.03 µM, first compound 0.316 µM",72%
same,"viability, T/C","second compound 0.03 µM, first compound 1 µM",61.8%
same,"viability, T/C","second compound 0.03 µM, first compound 3.16 µM",28.3%
same,"viability, T/C","second compound 0.03 µM, first compound 10 µM",23%
same,"viability, T/C",[9],79%
same,"viability, T/C",[10],80.4%
same,"viability, T/C","second compound 0.0949 µM, first compound 0.316 µM",69%
same,"viability, T/C","second compound 0.0949 µM, first compound 1 µM",56.2%
same,"viability, T/C","second compound 0.0949 µM, first compound 3.16 µM",25.5%
same,"viability, T/C","second compound 0.0949 µM, first compound 10 µM",21.1%
same,"viability, T/C",[11],73.2%
same,"viability, T/C",[12],78.9%
same,"viability, T/C","second compound 0.3 µM, first compound 0.316 µM",59.3%
same,"viability, T/C","second compound 0.3 µM, first compound 1 µM",47%
same,"viability, T/C","second compound 0.3 µM, first compound 3.16 µM",26.4%
same,"viability, T/C","second compound 0.3 µM, first compound 10 µM",16.6%
CC(C)n1nc(-c2ccc3oc(N)nc3c2)c2c(N)ncnc21 + CCn1c(-c2cccnc2C(C)OC)c2c3cc(ccc31)N1CCOC(CC(NC(=O)C(C(C)C)N(C)C(=O)C3(F)CCN(C(=O)C#CC(C)(C)N(C)C)CC3)C(=O)N3CCCC(N3)C(=O)OCC(C)(C)C2)C1,IC50,second compound 0.000949 µM,0.0316 µM
same,IC50,second compound 0.003 µM,0.0118 µM
same,IC50,second compound 0.00949 µM,0.0109 µM
same,IC50,second compound 0.03 µM,0.0173 µM
same,IC50,second compound 0.0949 µM,0.007 µM
same,IC50,second compound 0.3 µM,0.00672 µM
same,"viability, T/C","second compound 0.000949 µM, first compound 0.000316 µM",118%
same,"viability, T/C","second compound 0.000949 µM, first compound 0.001 µM",107%
same,"viability, T/C","second compound 0.000949 µM, first compound 0.00316 µM",64.2%
same,"viability, T/C","second compound 0.000949 µM, first compound 0.01 µM",74.7%
same,"viability, T/C",[1],55.6%
same,"viability, T/C",[2],30.6%
same,"viability, T/C","second compound 0.003 µM, first compound 0.000316 µM",105%
same,"viability, T/C","second compound 0.003 µM, first compound 0.001 µM",81%
same,"viability, T/C","second compound 0.003 µM, first compound 0.00316 µM",58.8%
same,"viability, T/C","second compound 0.003 µM, first compound 0.01 µM",56.3%
same,"viability, T/C",[3],45.7%
same,"viability, T/C",[4],25.4%
same,"viability, T/C","second compound 0.00949 µM, first compound 0.000316 µM",94.9%
same,"viability, T/C","second compound 0.00949 µM, first compound 0.001 µM",64%
same,"viability, T/C","second compound 0.00949 µM, first compound 0.00316 µM",65.3%
same,"viability, T/C","second compound 0.00949 µM, first compound 0.01 µM",53.4%
same,"viability, T/C",[5],44.5%
same,"viability, T/C",[6],26.1%
same,"viability, T/C","second compound 0.03 µM, first compound 0.000316 µM",80.7%
same,"viability, T/C","second compound 0.03 µM, first compound 0.001 µM",75.6%
same,"viability, T/C","second compound 0.03 µM, first compound 0.00316 µM",71.1%
same,"viability, T/C","second compound 0.03 µM, first compound 0.01 µM",67.7%
same,"viability, T/C",[7],30.1%
same,"viability, T/C",[8],30.6%
same,"viability, T/C","second compound 0.0949 µM, first compound 0.000316 µM",85.7%
same,"viability, T/C","second compound 0.0949 µM, first compound 0.001 µM",67.8%
same,"viability, T/C","second compound 0.0949 µM, first compound 0.00316 µM",61%
same,"viability, T/C","second compound 0.0949 µM, first compound 0.01 µM",52.2%
same,"viability, T/C",[9],25.6%
same,"viability, T/C",[10],30%
same,"viability, T/C","second compound 0.3 µM, first compound 0.000316 µM",75.7%
same,"viability, T/C","second compound 0.3 µM, first compound 0.001 µM",77.8%
same,"viability, T/C","second compound 0.3 µM, first compound 0.00316 µM",59.8%
same,"viability, T/C","second compound 0.3 µM, first compound 0.01 µM",45.3%
same,"viability, T/C",[11],32.2%
same,"viability, T/C",[12],30.6%
